Columns and labels:
Assay type in all cases: cell-based
[1] = biological target: T1, human muscarinic M2 receptor (Homo sapiens, UniProt P08172); test: Alphascreen Surefire phospho-ERK1/2 functional assay, M2; conditions: for EC50: CHO cells stably expressing human M2, agonist 5 min, 37° C., read-out: pEC50 M2 (converted); for Emax: CHO, read-out: % Emax cf. ACh, M2
T1 sequence (P08172 1-466): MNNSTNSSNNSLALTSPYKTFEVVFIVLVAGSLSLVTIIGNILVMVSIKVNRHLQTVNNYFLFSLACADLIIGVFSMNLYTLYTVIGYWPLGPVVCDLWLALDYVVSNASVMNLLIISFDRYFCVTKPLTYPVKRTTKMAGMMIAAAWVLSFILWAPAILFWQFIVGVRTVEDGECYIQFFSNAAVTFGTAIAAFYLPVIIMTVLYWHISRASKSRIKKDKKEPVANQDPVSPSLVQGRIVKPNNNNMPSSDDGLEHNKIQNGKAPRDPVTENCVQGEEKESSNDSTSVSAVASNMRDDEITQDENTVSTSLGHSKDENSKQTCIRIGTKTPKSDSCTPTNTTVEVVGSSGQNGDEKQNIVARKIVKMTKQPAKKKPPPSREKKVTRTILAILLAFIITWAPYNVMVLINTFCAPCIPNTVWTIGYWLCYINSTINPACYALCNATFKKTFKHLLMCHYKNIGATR
Method: (§1) ERK1/2 phosphorylation is a downstream consequence of both Gq/11 and Gi/o protein coupled receptor activation, making it highly suitable for the assessment of M1, M3 (Gq/11 coupled) and M2, M4 receptors (Gi/o coupled), rather than using different assay formats for different receptor subtypes. CHO cells stably expressing the human muscarinic M1, M2, M3 or M4 receptor were plated (25K/well) onto 96-well tissue culture plates in MEM-alpha+10% dialysed FBS. Once adhered, cells were serum-starved overnight. Agonist stimulation was performed by the addition of 5 μL agonist to the cells for 5 min (37° C.). Media was removed and 50 μL of lysis buffer added. After 15 min, a 4 μL sample was transferred to 384-well plate and 7 μL of detection mixture added. Plates were incubated for 2 h with gentle agitation in the dark and then read on a PHERAstar plate reader.
(§2) pEC50 and Emax figures were calculated from the resulting data for each receptor subtype.

[2] = biological target: T2, human muscarinic M3 receptor (Homo sapiens, UniProt P20309); test: Alphascreen Surefire phospho-ERK1/2 functional assay, M3; conditions: for EC50: CHO cells stably expressing human M3, agonist 5 min, 37° C., read-out: pEC50 M3 (converted); for Emax: CHO, read-out: % Emax cf. ACh, M3
T2 construct: expressed in transfected cells
T2 sequence (P20309 whole entry): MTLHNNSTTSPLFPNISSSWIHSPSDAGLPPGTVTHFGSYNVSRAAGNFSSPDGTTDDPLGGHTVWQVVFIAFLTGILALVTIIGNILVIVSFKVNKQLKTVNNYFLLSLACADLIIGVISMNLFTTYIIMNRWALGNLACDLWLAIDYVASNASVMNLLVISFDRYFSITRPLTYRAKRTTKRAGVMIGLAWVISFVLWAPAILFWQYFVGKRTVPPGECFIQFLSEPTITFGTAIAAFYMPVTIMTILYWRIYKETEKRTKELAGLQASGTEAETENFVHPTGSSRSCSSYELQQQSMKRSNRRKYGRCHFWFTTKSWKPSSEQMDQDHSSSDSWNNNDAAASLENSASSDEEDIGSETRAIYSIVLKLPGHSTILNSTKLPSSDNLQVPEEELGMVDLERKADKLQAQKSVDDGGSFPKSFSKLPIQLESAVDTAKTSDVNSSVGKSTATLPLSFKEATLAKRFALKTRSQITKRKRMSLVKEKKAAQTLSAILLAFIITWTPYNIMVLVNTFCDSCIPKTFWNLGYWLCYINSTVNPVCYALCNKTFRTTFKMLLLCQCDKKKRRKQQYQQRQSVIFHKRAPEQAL
Method: as §1, §2

[3] = biological target: T3, human muscarinic M1 receptor (Homo sapiens, UniProt P11229); test: Alphascreen Surefire phospho-ERK1/2 functional assay, M1; conditions: for EC50: CHO cells stably expressing human M1, agonist 5 min, 37° C., read-out: pEC50 M1 (converted); for Emax: CHO, read-out: % Emax cf. ACh, M1
T3 sequence (P11229 1-460): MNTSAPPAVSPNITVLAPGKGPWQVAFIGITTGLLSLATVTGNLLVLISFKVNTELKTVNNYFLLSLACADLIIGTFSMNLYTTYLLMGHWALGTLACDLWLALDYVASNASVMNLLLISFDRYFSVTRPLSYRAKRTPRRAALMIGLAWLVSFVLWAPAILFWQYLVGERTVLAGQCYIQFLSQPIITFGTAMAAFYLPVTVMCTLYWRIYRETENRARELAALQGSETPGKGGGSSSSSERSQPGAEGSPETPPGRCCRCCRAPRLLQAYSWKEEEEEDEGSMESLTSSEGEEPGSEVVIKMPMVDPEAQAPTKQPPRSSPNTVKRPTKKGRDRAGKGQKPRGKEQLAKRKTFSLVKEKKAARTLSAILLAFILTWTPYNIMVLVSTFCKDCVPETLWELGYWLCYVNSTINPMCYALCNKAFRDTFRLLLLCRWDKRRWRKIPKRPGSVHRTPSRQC
Method: as §1, §2

[4] = biological target: T4, human muscarinic M4 receptor (Homo sapiens, UniProt P08173); test: Alphascreen Surefire phospho-ERK1/2 functional assay, M4; conditions: for EC50: CHO cells stably expressing human M4, agonist 5 min, 37° C., read-out: pEC50 M4 (converted); for Emax: CHO, read-out: % Emax cf. ACh, M4
T4 construct: expressed in transfected cells
T4 sequence (P08173 1-479): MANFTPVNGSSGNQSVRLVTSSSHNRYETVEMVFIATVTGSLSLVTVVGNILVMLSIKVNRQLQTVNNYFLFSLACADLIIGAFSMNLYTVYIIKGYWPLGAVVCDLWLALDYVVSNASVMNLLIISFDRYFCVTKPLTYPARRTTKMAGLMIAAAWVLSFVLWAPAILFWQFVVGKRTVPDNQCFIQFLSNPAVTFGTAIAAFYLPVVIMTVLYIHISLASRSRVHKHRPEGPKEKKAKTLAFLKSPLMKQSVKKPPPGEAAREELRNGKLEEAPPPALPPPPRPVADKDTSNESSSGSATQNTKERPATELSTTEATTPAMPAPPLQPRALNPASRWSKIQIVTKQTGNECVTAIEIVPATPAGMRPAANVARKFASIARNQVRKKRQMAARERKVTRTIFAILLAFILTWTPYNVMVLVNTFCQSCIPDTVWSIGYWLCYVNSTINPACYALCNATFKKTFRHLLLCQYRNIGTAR
Method: as §1, §2

| SMILES | EC50 [3] [µM] | Emax [3] [%] | EC50 [4] [µM] | Emax [4] [%] | EC50 [1] [µM] | Emax [1] [%] | EC50 [2] [µM] | Emax [2] [%] |
| --- | --- | --- | --- | --- | --- | --- | --- | --- |
| O=C1CCc2ccccc2N1CCCN1CCC(CCOC2=NOCC2)CC1 [Example 1, 1-(3-(4-(2-((4,5-dihydroisoxazol-3-yl)oxy)ethyl)piperidin-1-yl)propyl)-3,4-dihydroquinolin-2(1H)-one] | 0.0631 | 92 | > 20 | 19 | > 20 | 1 | > 20 | 0 |
| O=C1CCc2ccccc2N1CCCN1CCC(CCCCOC2=NOCC2)CC1 [Example 2, 1-(3-(4-(4-((4,5-dihydroisoxazol-3-yl)oxy)butyl)piperidin-1-yl)propyl)-3,4-dihydroquinolin-2(1H)-one] | 0.00316 | 98 | > 20 | 10 | > 20 | 3 | > 20 | 7 |
| O=C1CCc2ccccc2N1CCCN1[C@@H]2CC[C@H]1CC(CCOC1=NOCC1)C2 (stereo partly drawn) [Example 3, 1-(3-((1R,5S)-3-(2-((4,5-dihydroisoxazol-3-yl)oxy)ethyl)-8-azabicyclo[3.2.1]octan-8-yl)propyl)-3,4-dihydroquinolin-2(1H)-one] | 0.1 | 37 | > 20 | 53 | – | – | – | – |
| O=C1CCc2ccccc2N1CCCN1C2CCC1CC(CCCOC1=NOCC1)C2 (centres unmarked) [Example 4, 1-(3-(3-(3-((4,5-dihydroisoxazol-3-yl)oxy)propyl)-8-azabicyclo[3.2.1]octan-8-yl)propyl)-3,4-dihydroquinolin-2(1H)-one] | 0.00316 | 71 | > 20 | 11 | > 20 | 29 | > 20 | 0 |
| O=C1CCc2ccccc2N1CCCN1[C@@H]2CC[C@H]1C[C@@H](OCCOC1=NOCC1)C2 [Example 5, 1-(3-(3-(2-((4,5-dihydroisoxazol-3-yl)oxy)ethoxy)-8-azabicyclo[3.2.1]octan-8-yl)propyl)-3,4-dihydroquinolin-2(1H)-one] | 0.00631 | 62 | > 20 | 19 | > 20 | 16 | > 20 | 46 |
| O=C1CCc2ccccc2N1CCCN1[C@@H]2CC[C@H]1CN(CCCOC1=NOCC1)C2 [Example 6, 1-(3-((1R,5S)-3-(3-((4,5-dihydroisoxazol-3-yl)oxy)propyl)-3,8-diazabicyclo[3.2.1]octan-8-yl)propyl)-3,4-dihydroquinolin-2(1H)-one] | < 0.000631 | 103 | > 20 | 32 | > 0.2 | 6 | > 0.2 | 0 |
| O=C1COc2cc(F)ccc2N1CCCN1CCC(CCOC2=NOCC2)CC1 [Example 7, 4-(3-(4-(2-((4,5-dihydroisoxazol-3-yl)oxy)ethyl)piperidin-1-yl)propyl)-7-fluoro-2H-benzo[b][1,4]oxazin-3(4H)-one] | 0.251 | 62 | > 20 | 8 | – | – | – | – |
| c1ccc2c(c1)CCCN2CCCN1C2CCC1CC(CCCOC1=NOCC1)C2 (centres unmarked) [Example 9, 3-(3-(8-(3-(3,4-dihydroquinolin-1(2H)-yl)propyl)-8-azabicyclo[3.2.1]octan-3-yl)propoxy)-4,5-dihydroisoxazole] | 0.0251 | 40 | > 20 | 16 | > 20 | 28 | > 20 | 21 |
| O=C1CCON1CCCC1C[C@@H]2CC[C@@H](C1)N2CCCN1C(=O)CCc2ccccc21 (stereo partly drawn) [Example 13, 2-(3-((1S,5S)-8-(3-(2-oxo-3,4-dihydroquinolin-1(2H)-yl)propyl)-8-azabicyclo[3.2.1]octan-3-yl)propyl)isoxazolidin-3-one] | 0.1 | 62 | > 20 | 12 | > 20 | 9 | > 20 | 8 |

Further lines, with some results ahead:

| EC50 [3] [µM] | Emax [3] [%] | EC50 [4] [µM] | Emax [4] [%] | SMILES | EC50 [1] [µM] | Emax [1] [%] | EC50 [2] [µM] | Emax [2] [%] |
| --- | --- | --- | --- | --- | --- | --- | --- | --- |
| 0.01 | 102 | 0.0251 | 25 | O=C1COc2cc(F)ccc2N1CCCN1CCC(CCCCOC2=NOCC2)CC1 [Example 8, 4-(3-(4-(4-((4,5-dihydroisoxazol-3-yl)oxy)butyl)piperidin-1-yl)propyl)-7-fluoro-2H-benzo[b][1,4]oxazin-3(4H)-one] | > 20 | 4 | > 20 | 3 |
| 0.794 | 73 | > 20 | 13 | O=C1CCON1CCC1CCN(CCCN2C(=O)CCc3ccccc32)CC1 [Example 10, 2-(2-(1-(3-(2-oxo-3,4-dihydroquinolin-1(2H)-yl)propyl)piperidin-4-yl)ethyl)isoxazolidin-3-one] | – | – | – | – |
| 0.01 | 92 | > 20 | 10 | O=C1CCON1CCCCC1CCN(CCCN2C(=O)CCc3ccccc32)CC1 [Example 11, 2-(4-(1-(3-(2-oxo-3,4-dihydroquinolin-1(2H)-yl)propyl)piperidin-4-yl)butyl)isoxazolidin-3-one] | > 20 | 4 | > 20 | 7 |
| 0.02 | 41 | > 20 | 5 | O=C1CCON1CCCCCC1CCN(CCCN2C(=O)CCc3ccccc32)CC1 [Example 12, 2-(5-(1-(3-(2-oxo-3,4-dihydroquinolin-1(2H)-yl)propyl)piperidin-4-yl)pentyl)isoxazolidin-3-one] | > 20 | 2 | > 20 | 1 |

From patent US12215099B2, “Quinolinone and benzoxazine derivatives as muscarinic M1 and/or M4 receptor agonists” (Nxera Pharma UK Limited, priority 2018, dated 2025)
